Results published in PubChem BioAssay AID248 (DTP/NCI, 2004).
“And” between values parts separate entries of the source, which are not always exact repeats. Equal entries are not always repeated. Inconclusive results and toxic doses are left out. No stated cut-off is given here; in the data, active means T/C of 150% or more; inactive means T/C below 125%.

Tested on: L1210 leukemia ip in BDF1 mice, survival T/C
Assay: NCI In Vivo Anticancer Drug Screen. Data for tumor model L1210 Leukemia (intraperitoneal) in B6D2F1 (BDF1) mice
Settings: endpoint: mean survival time, higher = longer survival
Method in brief: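 Mice bearing the transplanted tumor received compound or vehicle. Survival of the treated group was divided by that of the vehicle-treated control group to give the ratio.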

[1] = dose: 100.0 mg/kg/injection, schedule: Q01DX001 (ip), vehicle: saline
[2] = dose: 200.0 mg/kg/injection, schedule: Q01DX001 (ip), vehicle: saline
[3] = dose: 400.0 mg/kg/injection, schedule: Q01DX001 (ip), vehicle: saline
[4] = dose: 100.0 mg/kg/injection, schedule: Q04DX003 (ip), vehicle: saline with Tween-80
[5] = dose: 200.0 mg/kg/injection, schedule: Q04DX003 (ip), vehicle: saline with Tween-80
[6] = dose: 400.0 mg/kg/injection, schedule: Q04DX003 (ip), vehicle: saline with Tween-80
[7] = dose: 100.0 mg/kg/injection, schedule: Q04DX003 (ip), vehicle: Klucel (hydroxypropylcellulose) (HPC)
[8] = dose: 200.0 mg/kg/injection, schedule: Q04DX003 (ip), vehicle: Klucel (hydroxypropylcellulose) (HPC)
[9] = dose: 400.0 mg/kg/injection, schedule: Q04DX003 (ip), vehicle: Klucel (hydroxypropylcellulose) (HPC)
[10] = dose: 100.0 mg/kg/injection, schedule: Q01DX009 (ip), vehicle: saline with Tween-80
[11] = dose: 200.0 mg/kg/injection, schedule: Q01DX009 (ip), vehicle: saline with Tween-80
[12] = dose: 400.0 mg/kg/injection, schedule: Q01DX009 (ip), vehicle: saline with Tween-80
[13] = dose: 100.0 mg/kg/injection, schedule: Q04DX002 (ip), vehicle: saline with Tween-80
[14] = dose: 200.0 mg/kg/injection, schedule: Q04DX002 (ip), vehicle: saline with Tween-80
[15] = dose: 400.0 mg/kg/injection, schedule: Q04DX002 (ip), vehicle: saline with Tween-80

Measured: T/C

CSc1nc(N)c(N)c(SC)n1
inactive: dose: 16.0 mg/kg/injection, schedule: Q01DX Z (ip), vehicle: methylcellulose (MC) 91 % of control | dose: 31.0 mg/kg/injection, schedule: Q01DX Z (ip), vehicle: methylcellulose (MC) 93 % of control | dose: 62.0 mg/kg/injection, schedule: Q01DX Z (ip), vehicle: methylcellulose (MC) 96 % of control | dose: 100.0 mg/kg/injection, schedule: Q01DX001 (ip), vehicle: other 102 % of control | dose: 100.0 mg/kg/injection, schedule: Q04DX003 (ip), vehicle: other 94 % of control | dose: 125.0 mg/kg/injection, schedule: Q01DX Z (ip), vehicle: methylcellulose (MC) 93 % of control | dose: 200.0 mg/kg/injection, schedule: Q01DX001 (ip), vehicle: other 101 % of control | dose: 200.0 mg/kg/injection, schedule: Q04DX003 (ip), vehicle: other 96 % of control | dose: 400.0 mg/kg/injection, schedule: Q01DX001 (ip), vehicle: other 96 % of control | dose: 400.0 mg/kg/injection, schedule: Q04DX003 (ip), vehicle: other 102 % of control

[Mn+2].[NH-]CC(=O)O.[NH-]CC(=O)O
inactive: [1] 96 % of control

CCOC(=O)c1[nH]cnc1N
inactive: [1] 96 % of control | [2] 94 % of control | [3] 96 % of control

O=C(O)C(O)C1CCCCC1 (stereo not given)
inactive: dose: 100.0 mg/kg/injection, schedule: Q01DX001 (ip), vehicle: carboxymethylcellulose (CMC) 91 % of control | dose: 200.0 mg/kg/injection, schedule: Q01DX001 (ip), vehicle: carboxymethylcellulose (CMC) 104 % of control | dose: 400.0 mg/kg/injection, schedule: Q01DX001 (ip), vehicle: carboxymethylcellulose (CMC) 94 % of control

CC(CCC(C)(C)O)C1CCC2C3C(O)CC4CCCCC4(C)C3CC(O)C12C (stereo not given)
inactive: [4] 89 % of control | [5] 91 % of control | [6] 88 % of control

O=C(c1ccccc1)c1ccc(Br)s1
inactive: [7] 96 % of control | [8] 97 % of control | [9] 94 % of control

Oc1cc(Cl)c(Cl)cc1Cl.[Cu+2]
inactive: dose: 12.5 mg/kg/injection, schedule: Q04DX003 (ip), vehicle: gum acacia 92 % of control | dose: 25.0 mg/kg/injection, schedule: Q04DX003 (ip), vehicle: gum acacia 93 % of control

O=[N+]([O-])c1c(Cl)sc(Cl)c1[N+](=O)[O-]
inactive: dose: 3.13 mg/kg/injection, schedule: Q01DX009 (ip), vehicle: saline sonified 98 % of control | dose: 6.25 mg/kg/injection, schedule: Q01DX009 (ip), vehicle: saline sonified 100 % of control | dose: 6.25 mg/kg/injection, schedule: Q04DX003 (ip), vehicle: Klucel (hydroxypropylcellulose) (HPC) 86 % of control | dose: 12.5 mg/kg/injection, schedule: Q01DX009 (ip), vehicle: saline sonified 101 % of control | dose: 12.5 mg/kg/injection, schedule: Q04DX003 (ip), vehicle: Klucel (hydroxypropylcellulose) (HPC) 86 % of control

CCCCCC(=O)OC1(C(C)=O)CCC2C3CCC4=CC(=O)CCC4C3CCC21C (stereo not given)
inactive: dose: 12.5 mg/kg/injection, schedule: Q04DX002 (ip), vehicle: Klucel (hydroxypropylcellulose) (HPC) 94 % of control | dose: 25.0 mg/kg/injection, schedule: Q04DX002 (ip), vehicle: Klucel (hydroxypropylcellulose) (HPC) 90 % of control | dose: 50.0 mg/kg/injection, schedule: Q04DX002 (ip), vehicle: Klucel (hydroxypropylcellulose) (HPC) 94 % of control

Clc1ccc(/C=N/Nc2c3ccccc3nc3ccccc23)c(Cl)c1
inactive: [1] 92 % of control | [2] 97 % of control | [3] 100 % of control

Cc1ccc2c(c1)CN(C13CC4CC(CC(C4)C1)C3)CO2
inactive: dose: 100.0 mg/kg/injection, schedule: Q04DX003 (ip), vehicle: saline sonified 91 % of control | dose: 200.0 mg/kg/injection, schedule: Q04DX003 (ip), vehicle: saline sonified 102 % of control | dose: 400.0 mg/kg/injection, schedule: Q04DX003 (ip), vehicle: saline sonified 93 % of control

COC(=O)C1(C)CCCC2(C)C1CCC13OCC(CC21)C(=C(C)C)C3OC(C)=O (stereo not given)
inactive: [10] 93 % of control | [11] 88 % of control | [12] 90 % of control

CCCCOC(OCCCC)C(C)=O
inactive: dose: 100.0 mg/kg/injection, schedule: Q01DX009 (ip), vehicle: Klucel (hydroxypropylcellulose) (HPC) 96 % of control | [7] 113 % of control | dose: 200.0 mg/kg/injection, schedule: Q01DX009 (ip), vehicle: Klucel (hydroxypropylcellulose) (HPC) 96 % of control | [8] 92 % of control | dose: 400.0 mg/kg/injection, schedule: Q01DX009 (ip), vehicle: Klucel (hydroxypropylcellulose) (HPC) 101 % of control | [9] 102 % of control

Nc1cccc2c1ccc1ccc3ccccc3c12
inactive: dose: 100.0 mg/kg/injection, schedule: Q01DX001 (ip), vehicle: Klucel (hydroxypropylcellulose) (HPC) 103 % of control | dose: 200.0 mg/kg/injection, schedule: Q01DX001 (ip), vehicle: Klucel (hydroxypropylcellulose) (HPC) 101 % of control | dose: 400.0 mg/kg/injection, schedule: Q01DX001 (ip), vehicle: Klucel (hydroxypropylcellulose) (HPC) 108 % of control

CCOc1ccc(/C=C2\N=C(c3cccc(Cl)c3)OC2=O)cc1
inactive: [13] 93 % of control | [14] 93 % of control | [15] 96 % of control

CC[C@H](CC[C@@H](C)[C@H]1CC[C@H]2[C@@H]3CC[C@H]4C[C@@H](O)CC[C@]4(C)[C@H]3CC[C@]12C)C(C)C
inactive: dose: 100.0 mg/kg/injection, schedule: Q01DX001 (ip), vehicle: water 90 % of control | dose: 200.0 mg/kg/injection, schedule: Q01DX001 (ip), vehicle: water 91 % of control | dose: 400.0 mg/kg/injection, schedule: Q01DX001 (ip), vehicle: water 93 % of control

CC1=CCC2(C)CCC(C(C)C)C2(O)CC1 (stereo not given)
inactive: dose: 100.0 mg/kg/injection, schedule: Q01DX009 (ip), vehicle: saline 91 % of control | dose: 200.0 mg/kg/injection, schedule: Q01DX009 (ip), vehicle: saline 93 % of control

Cc1ccc2[nH]c(-c3ccccc3)c(-c3ccccc3)c2c1
inactive: [10] 95 % of control | [11] 103 % of control | [12] 95 % of control

Cc1c(Cl)cccc1NC(=O)OCCCc1ccccc1
inactive: dose: 100.0 mg/kg/injection, schedule: Q01DX001 (ip), vehicle: saline with Tween-80 93 % of control | [10] 101 % of control and 104 % of control | [13] 96 % of control and 108 % of control | [4] 102 % of control | dose: 200.0 mg/kg/injection, schedule: Q01DX001 (ip), vehicle: saline with Tween-80 93 % of control | [11] 93 % of control and 96 % of control | [14] 108 % of control and 121 % of control | [5] 89 % of control | dose: 400.0 mg/kg/injection, schedule: Q01DX001 (ip), vehicle: saline with Tween-80 90 % of control | [12] 98 % of control and 90 % of control | [15] 97 % of control and 101 % of control | [6] 91 % of control

CCC(C)NNC(C)CC (stereo not given)
inactive: dose: 75.0 mg/kg/injection, schedule: Q01DX001 (ip), vehicle: other 98 % of control | dose: 150.0 mg/kg/injection, schedule: Q01DX001 (ip), vehicle: other 112 % of control | dose: 300.0 mg/kg/injection, schedule: Q01DX001 (ip), vehicle: other 103 % of control

CC(=O)COc1ccccc1NC(C)=O
inactive: [10] 101 % of control | [11] 106 % of control | [12] 109 % of control
